Results published in US20060216749A1, “Chimeric gaba receptor” (priority 2003, published 2006).

Columns and labels:
[1] = target: hGABABR1a/GABABR2 receptor (CHO membranes) (Homo sapiens, UniProt O75899+Q9UBS5); assay: GTPγ35S activation assay
Procedure: (§1) Butyrate-stimulated (5 mM final) cells were scraped, after a short rinse with PBS, in 50 mM TrisHCl pH7.4 and centrifuged at 23500 g for 10 min. at 4° C. The pellet was homogenised in 5 mM TrisHCI pH 7.4 by Ultra-Turrax (24000 rpm) followed by centrifugation at 30000 g for 20 min. at 4° C. The resulting pellet was resuspended in 50 mM TrisHCl pH 7.4 and rehomogenised. Protein concentration was determined using the Bradford method.
Filters were rinsed 6 times with cold 10 mM phosphate buffer pH 7.4, and dried overnight before addition of 30 μl Microscint O, and measurement in Topcount (Packard, 1 min./well).

[2] = target: hGABABR1a/R2 heterodimeric GABAB receptor (CHO membranes) (Homo sapiens, UniProt O75899+Q9UBS5); assay: biochemical
Procedure: as §1
An agonist filter binding assay has been developed in 96-well GF/B filterplate.

[3] = target: GABAB receptor expressed by the hGABABR1a/GABABR2 CHO cell line (Homo sapiens, UniProt O75899+Q9UBS5); conditions: 10 μM in saturation assay, FIGS. 4a, b
Chain of GABAB receptor expressed by the hGABABR1a/GABABR2 CHO cell line (Q9UBS5 20-961): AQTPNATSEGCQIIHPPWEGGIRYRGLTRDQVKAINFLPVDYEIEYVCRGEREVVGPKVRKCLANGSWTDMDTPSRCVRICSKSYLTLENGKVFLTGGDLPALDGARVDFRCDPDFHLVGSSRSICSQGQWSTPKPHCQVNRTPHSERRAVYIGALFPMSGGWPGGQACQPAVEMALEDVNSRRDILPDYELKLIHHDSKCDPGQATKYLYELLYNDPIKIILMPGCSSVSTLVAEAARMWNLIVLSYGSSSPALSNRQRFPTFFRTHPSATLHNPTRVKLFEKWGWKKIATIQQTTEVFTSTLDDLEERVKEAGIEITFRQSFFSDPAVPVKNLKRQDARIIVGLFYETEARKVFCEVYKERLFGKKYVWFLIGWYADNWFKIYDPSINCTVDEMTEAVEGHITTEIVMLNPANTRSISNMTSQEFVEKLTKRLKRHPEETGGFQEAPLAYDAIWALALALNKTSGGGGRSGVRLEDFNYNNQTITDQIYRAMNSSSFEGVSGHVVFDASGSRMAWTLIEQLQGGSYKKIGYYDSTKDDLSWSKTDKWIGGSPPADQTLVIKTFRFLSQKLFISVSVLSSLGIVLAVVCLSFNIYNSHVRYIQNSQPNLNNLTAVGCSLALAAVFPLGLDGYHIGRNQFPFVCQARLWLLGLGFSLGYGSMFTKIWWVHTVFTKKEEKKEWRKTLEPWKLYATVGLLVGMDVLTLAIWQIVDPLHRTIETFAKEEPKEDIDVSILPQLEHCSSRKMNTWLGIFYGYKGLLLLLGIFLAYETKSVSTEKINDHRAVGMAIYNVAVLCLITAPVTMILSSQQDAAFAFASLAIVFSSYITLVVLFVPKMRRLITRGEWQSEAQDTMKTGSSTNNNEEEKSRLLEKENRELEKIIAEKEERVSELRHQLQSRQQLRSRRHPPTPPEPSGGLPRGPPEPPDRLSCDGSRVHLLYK
Chain of GABAB receptor expressed by the hGABABR1a/GABABR2 CHO cell line (O75899 42-941): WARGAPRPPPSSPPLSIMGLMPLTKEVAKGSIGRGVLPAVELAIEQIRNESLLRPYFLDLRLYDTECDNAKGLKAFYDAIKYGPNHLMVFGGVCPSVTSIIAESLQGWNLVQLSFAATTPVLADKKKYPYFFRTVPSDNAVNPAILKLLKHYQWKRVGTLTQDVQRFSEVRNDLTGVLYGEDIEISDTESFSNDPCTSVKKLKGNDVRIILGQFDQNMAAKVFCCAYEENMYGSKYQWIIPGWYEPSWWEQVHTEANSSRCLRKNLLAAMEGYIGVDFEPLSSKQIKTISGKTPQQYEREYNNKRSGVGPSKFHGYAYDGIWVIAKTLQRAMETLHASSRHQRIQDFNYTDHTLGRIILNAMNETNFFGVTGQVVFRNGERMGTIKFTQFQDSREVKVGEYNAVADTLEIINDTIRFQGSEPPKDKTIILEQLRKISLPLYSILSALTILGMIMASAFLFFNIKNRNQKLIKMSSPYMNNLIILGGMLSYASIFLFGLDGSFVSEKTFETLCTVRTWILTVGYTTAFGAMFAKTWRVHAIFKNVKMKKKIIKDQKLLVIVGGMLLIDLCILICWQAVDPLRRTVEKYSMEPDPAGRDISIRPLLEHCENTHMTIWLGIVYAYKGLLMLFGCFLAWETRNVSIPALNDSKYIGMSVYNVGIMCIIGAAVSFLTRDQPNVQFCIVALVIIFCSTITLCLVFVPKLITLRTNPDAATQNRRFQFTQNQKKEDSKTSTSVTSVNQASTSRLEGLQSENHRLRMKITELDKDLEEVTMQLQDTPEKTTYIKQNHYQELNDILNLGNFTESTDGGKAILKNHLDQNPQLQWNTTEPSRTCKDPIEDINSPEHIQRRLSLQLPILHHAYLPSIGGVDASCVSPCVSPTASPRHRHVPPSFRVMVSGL
Procedure: Agonist centrifugation Binding AssayIn an alternative binding assay the non-bound ligand was separated from the membranes by centrifugation instead of filtration. The assay was performed according to the earlier described filter binding assay, with the difference that the non-bound ligand was separated from the membranes by centrifugation in a microcentrifuge at 12500 rpm for 10 minutes. The supernatant was discarded, the pellet was rinsed with washing buffer and dissolved in 200 μl water.

[4] = target: T1, native GABAB receptor, Rat (Rattus norvegicus, UniProt Q9Z0U4); conditions: published results; cited from earlier work
T1 construct: host or cells: rat tissue preparations
T1 sequence (Q9Z0U4 20-960): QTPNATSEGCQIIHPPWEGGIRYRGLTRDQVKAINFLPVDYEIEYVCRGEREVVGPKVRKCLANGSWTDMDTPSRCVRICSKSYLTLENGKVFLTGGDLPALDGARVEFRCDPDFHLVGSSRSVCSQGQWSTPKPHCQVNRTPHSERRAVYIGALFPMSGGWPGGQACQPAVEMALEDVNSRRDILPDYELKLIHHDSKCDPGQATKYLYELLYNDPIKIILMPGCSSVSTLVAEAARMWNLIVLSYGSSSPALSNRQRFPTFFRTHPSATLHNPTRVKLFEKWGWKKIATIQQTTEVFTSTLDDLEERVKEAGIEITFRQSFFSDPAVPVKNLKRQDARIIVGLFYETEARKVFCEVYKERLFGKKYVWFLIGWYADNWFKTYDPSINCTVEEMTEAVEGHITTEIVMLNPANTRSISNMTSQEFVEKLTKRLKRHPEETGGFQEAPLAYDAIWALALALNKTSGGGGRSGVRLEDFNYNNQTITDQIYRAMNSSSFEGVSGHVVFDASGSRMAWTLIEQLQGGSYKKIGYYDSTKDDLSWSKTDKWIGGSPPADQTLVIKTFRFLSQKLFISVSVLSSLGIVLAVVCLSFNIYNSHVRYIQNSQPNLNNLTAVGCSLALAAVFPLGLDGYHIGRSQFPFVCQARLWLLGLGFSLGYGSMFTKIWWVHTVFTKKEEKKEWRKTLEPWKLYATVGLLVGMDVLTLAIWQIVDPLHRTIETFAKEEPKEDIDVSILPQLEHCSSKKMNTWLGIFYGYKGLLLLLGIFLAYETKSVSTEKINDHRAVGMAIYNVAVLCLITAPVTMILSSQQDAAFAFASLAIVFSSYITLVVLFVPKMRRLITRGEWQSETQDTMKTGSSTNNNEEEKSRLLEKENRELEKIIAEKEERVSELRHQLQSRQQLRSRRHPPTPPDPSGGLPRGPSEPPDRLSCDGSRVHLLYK
T1 sequence (O88871 41-940 partner): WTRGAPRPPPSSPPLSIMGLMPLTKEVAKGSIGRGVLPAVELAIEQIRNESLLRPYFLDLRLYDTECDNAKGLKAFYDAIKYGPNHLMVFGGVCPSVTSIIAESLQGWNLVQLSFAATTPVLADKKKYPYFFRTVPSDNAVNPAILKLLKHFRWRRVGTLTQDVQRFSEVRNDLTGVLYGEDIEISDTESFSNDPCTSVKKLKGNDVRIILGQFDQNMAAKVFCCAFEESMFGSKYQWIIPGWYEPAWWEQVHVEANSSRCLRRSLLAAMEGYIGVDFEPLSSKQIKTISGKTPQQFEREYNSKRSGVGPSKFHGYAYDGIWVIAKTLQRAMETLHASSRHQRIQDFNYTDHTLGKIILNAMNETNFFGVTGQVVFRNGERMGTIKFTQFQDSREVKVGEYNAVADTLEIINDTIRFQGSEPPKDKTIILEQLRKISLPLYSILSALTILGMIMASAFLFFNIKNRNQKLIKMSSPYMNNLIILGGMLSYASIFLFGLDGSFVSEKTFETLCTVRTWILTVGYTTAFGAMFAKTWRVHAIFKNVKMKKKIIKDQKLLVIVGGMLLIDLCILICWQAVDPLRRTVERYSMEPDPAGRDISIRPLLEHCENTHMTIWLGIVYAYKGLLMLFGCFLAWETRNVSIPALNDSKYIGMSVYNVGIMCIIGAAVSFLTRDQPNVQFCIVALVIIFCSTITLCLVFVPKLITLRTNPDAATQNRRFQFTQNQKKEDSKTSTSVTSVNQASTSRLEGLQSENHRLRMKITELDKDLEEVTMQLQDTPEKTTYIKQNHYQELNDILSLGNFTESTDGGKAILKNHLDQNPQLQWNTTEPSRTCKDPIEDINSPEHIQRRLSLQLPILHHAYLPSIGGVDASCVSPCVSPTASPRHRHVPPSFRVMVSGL

[5] = target: native GABAB receptor, Pig (Sus scrofa, UniProt A0A480I1B8); conditions: Facklam & Bowery, 1993; cited from earlier work
Chain of native GABAB receptor, Pig (A0A480I1B8 1-960): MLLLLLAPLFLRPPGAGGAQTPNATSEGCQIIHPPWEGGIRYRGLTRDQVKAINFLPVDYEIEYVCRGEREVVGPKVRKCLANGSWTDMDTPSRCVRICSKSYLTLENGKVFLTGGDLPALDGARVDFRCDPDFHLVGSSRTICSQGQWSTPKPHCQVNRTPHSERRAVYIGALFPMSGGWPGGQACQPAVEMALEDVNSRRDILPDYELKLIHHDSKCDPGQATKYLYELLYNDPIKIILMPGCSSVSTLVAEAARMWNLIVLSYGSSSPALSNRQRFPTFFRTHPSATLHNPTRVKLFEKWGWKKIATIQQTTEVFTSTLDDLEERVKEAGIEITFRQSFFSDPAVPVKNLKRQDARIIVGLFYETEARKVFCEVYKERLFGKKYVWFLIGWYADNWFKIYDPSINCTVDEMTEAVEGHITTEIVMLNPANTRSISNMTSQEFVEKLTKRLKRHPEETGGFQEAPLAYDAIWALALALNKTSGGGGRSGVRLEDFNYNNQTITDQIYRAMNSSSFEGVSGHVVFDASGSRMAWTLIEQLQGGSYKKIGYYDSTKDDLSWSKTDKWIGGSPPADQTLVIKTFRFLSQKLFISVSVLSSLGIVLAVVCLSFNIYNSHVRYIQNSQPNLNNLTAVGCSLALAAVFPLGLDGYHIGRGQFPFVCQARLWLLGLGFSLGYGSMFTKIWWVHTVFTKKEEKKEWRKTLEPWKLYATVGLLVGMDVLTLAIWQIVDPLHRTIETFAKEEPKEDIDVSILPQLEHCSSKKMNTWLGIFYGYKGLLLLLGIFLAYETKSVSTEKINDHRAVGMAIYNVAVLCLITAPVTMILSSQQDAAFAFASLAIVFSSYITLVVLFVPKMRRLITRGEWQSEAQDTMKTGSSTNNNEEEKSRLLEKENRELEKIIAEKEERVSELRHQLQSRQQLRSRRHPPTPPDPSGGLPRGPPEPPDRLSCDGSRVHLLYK

Chain of hGABABR1a/R2 heterodimeric GABAB receptor (CHO membranes) (Q9UBS5 20-961): as the sequence (Q9UBS5 20-961) above
Chain of hGABABR1a/R2 heterodimeric GABAB receptor (CHO membranes) (O75899 42-941): as the sequence (O75899 42-941) above
Chain of hGABABR1a/GABABR2 receptor (CHO membranes) (Q9UBS5 20-961): as the sequence (Q9UBS5 20-961) above
Chain of hGABABR1a/GABABR2 receptor (CHO membranes) (O75899 42-941): as the sequence (O75899 42-941) above

Row | Structure (SMILES) | SIGNAL TRANSDUCTION GTPγS binding % Effect at 10 μM [1] | IC50 [2] | also measured
1 | CC(C)(CO)Cc1cc(C(C)(C)C)c(O)c(C(C)(C)C)c1 [CGP7930, reference compound] | – | – | effect on GABA-stimulated GTPγ35S binding ([1]; positive modulator, FIG. 1): potentiated
2 | C[C@H](NC[C@H](O)CP(=O)(O)CC1CCCCC1)c1ccc(Cl)c(Cl)c1 [CGP54626, reference compound] | – | – | effect on 3H-GABA binding to both the high and the low affinity site [3]: blocked
3 | C[C@H](NC[C@H](O)CP(=O)(O)CC1CCCCC1)c1ccc(Cl)c(Cl)c1 [^3H-CGP54626] | – | – | Kd [4]: 1.5 nM; Kd [5]: 1.35 nM
4 | NCCCC(=O)O [^3H-GABA] | – | – | Kd [5]: 26 nM
5 | CN(C)c1ncnc2c1N=C1CC(C)(C)CC(NCCCC(=O)O)=C1S2 [compound 1] | – | – | effect on 3H-GABA binding to both the high and the low affinity site [3]: blocked

More lines, main results first:

Row | SIGNAL TRANSDUCTION GTPγS binding % Effect at 10 μM [1] | IC50 [2] | Structure (SMILES) | also measured
6 | 40.95% | 151 nM | CC1(C)CC2=Nc3c(N)ncnc3SC2=C(NCCCC(=O)O)C1 | –
7 | 24.44% | 372 nM | CC1(C)CC2=Nc3ccccc3SC2=C(NCCCC(=O)O)C1 | –
8 | 61.93% | 135 nM | CC1(C)CC2=Nc3c(Cl)ncnc3SC2=C(NCCCC(=O)O)C1 | –
9 | 45.7275% | 64.9 nM | CN(C)c1ncnc2c1N=C1CC(C)(C)CC(NCCCC(=O)O)=C1S2 [drawing 15] | –
